This is an account of results in publication PMC10687071 (The Journal of Biological Chemistry, 2023).

SMILES strings stand for the structures. Residue numbers refer to the chain shown, from its start.

Assay [1] addresses T1, Y71F mutant EAG1 channels (Mus musculus, UniProt Q60603, Y71F).
T1 construct: expressed in transfected cells; host or cells: Xenopus laevis oocytes injected with cRNA
T1 sequence (Q60603 1-989 Y71F): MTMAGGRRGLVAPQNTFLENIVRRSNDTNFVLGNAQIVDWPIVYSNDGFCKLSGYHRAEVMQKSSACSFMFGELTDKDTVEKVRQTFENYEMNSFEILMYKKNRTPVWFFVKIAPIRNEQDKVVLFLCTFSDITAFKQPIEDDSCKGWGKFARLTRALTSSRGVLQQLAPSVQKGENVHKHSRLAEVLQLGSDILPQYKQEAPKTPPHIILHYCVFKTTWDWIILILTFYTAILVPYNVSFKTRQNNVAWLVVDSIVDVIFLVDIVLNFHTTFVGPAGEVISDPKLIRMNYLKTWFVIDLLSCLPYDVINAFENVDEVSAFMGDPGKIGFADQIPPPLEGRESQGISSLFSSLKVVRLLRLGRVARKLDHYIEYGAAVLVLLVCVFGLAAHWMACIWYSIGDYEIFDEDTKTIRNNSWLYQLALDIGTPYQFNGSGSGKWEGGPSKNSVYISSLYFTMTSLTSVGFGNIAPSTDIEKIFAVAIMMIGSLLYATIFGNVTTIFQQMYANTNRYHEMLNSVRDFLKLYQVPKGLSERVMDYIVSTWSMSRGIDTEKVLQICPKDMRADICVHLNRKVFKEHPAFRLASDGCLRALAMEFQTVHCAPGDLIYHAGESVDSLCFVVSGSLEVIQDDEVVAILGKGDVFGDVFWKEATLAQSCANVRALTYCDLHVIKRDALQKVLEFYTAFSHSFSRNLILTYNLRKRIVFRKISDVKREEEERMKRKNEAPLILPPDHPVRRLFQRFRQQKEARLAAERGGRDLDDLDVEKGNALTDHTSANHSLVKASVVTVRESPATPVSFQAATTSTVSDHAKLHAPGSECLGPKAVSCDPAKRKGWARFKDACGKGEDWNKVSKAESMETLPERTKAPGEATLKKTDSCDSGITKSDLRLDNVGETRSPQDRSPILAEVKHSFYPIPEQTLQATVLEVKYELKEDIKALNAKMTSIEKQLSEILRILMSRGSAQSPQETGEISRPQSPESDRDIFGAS
The assay is described as follows: TEVC recording, imipramine inhibition, Y71F mutant. In kind it is cell-based. The settings on record: Y71F mutant EAG1 channel, +50 mV. The text has this:
(§1) The cDNA encoding wild-type (WT) mouse EAG1 channels in pGH19 vector was kindly provided by G. Robertson (University of Wisconsin-Madison, Madison, WI). The mutant ΔPAS EAG1 channel in pGH19 with the deletion of the PAS domain residues 2 to 130 was generated by Bio Basic Inc and verified by DNA sequencing (Genewiz). Mutant EAG1 channels with single amino acid substitutions were generated by Genewiz and verified by DNA sequencing. cRNA was transcribed using the T7 mMessage mMachine kit (Thermo Fisher Scientific). Defolliculated Xenopus laevis oocytes were purchased from Ecocyte Bioscience or Xenopus1 and injected with the cRNA using a Nanoinject II oocyte injector (Drummond).
(§2) For EAG1 current recordings, oocytes were placed into a handmade chamber containing a bath solution for the current recording. The currents were recorded using a TEVC technique with OC-725C amplifier (Warner Instruments) and pClamp11 software (Molecular Devices). The signals were digitized using Digidata 1550 (Molecular Devices). Patch pipettes were pulled from borosilicate glass and had resistances of 0.7 to 1.5 MΩ. The recording (bath) solution contained 96 mM NaCl, 4 mM KCl, 0.1 mM CaCl2, 1.8 mM MgCl2, and 5 mM HEPES, pH 7.5. The pipette solution contained 3 M KCl. […]

Assay [2] addresses T2, V83G mutant EAG1 channels (Mus musculus, UniProt Q60603, V83G).
T2 construct: expressed in transfected cells; host or cells: Xenopus laevis oocytes injected with cRNA
T2 sequence (Q60603 1-989 V83G): T1 sequence (Q60603 1-989 Y71F) with F71Y, V83G
The assay is described as follows: TEVC recording, imipramine inhibition, V83G mutant. It is filed as cell-based. The settings on record: V83G mutant EAG1 channel, +50 mV.
From the text: as §1, §2

With `CN(C)CCCN1c2ccccc2CCc2ccccc21` [imipramine], the IC50 in assay [1] was determined as 58 ± 3.7 µM; in assay [2], 44.3 ± 2.6 µM.
